Test results published in patent US8232273B2, “Heterocyclic compounds and methods of use” (Genentech, Inc., priority 2008, dated 2012).

These molecules were tested against T1, Bcl-xL (GST-Bcl-xL) (Homo sapiens, UniProt Q07817) (assay: AlphaScreen Bcl-xL binding assay, competition with biotinylated Bim peptide). Settings: values listed in the order of Table 1; read-out: Alphascreen results (IC50) against the Bcl-xL protein.
T1 sequence (Q07817 whole entry, species assumed): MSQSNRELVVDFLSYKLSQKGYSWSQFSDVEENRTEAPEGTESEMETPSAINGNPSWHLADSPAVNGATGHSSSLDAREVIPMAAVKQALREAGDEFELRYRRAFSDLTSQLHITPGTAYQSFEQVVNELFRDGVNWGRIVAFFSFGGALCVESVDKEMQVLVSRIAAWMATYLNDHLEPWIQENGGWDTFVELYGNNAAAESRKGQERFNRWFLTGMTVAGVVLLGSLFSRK
Parameters: made in house
Description: The measurement of competition of compounds of the invention with Bim26-mer for a Bcl-2 family protein binding site using an Alpha Screen Bcl-xL binding assay:
The BH3 proteins AlphaScreen™ assay was used to identify active small molecules Bcl-2 family protein screen, e.g., Bcl-xL, hmMcl-1 screen.
The beads come in close proximity when the protein and the peptides interact. Donor beads contain a photosensitiser that converts oxygen to an excited form of O2 at an excitation of 680 nm. Energy is transformed from the singlet oxygen and reacts with chemiluminescers on the acceptor bead, resulting in light emission at 520-620 nm. […] With this information, the IC50 of each compound was calculated
GST-Bcl-xL, GST-hmMcl-1 and biotinylated GST proteins were prepared in-house and were stored as stock solutions at −80° C. The biotinylated-Bak, and biotinylated-Bim peptides were purchased from Auspep and were stored as 500 μM stock solutions in 100% DMSO at −80° C. […] DMSO was purchased from AnalaR.
Compounds of the invention were prepared as 10 mM stocks with 100% DMSO on the day prior to performing the assay. […] To achieve a final compound concentration of 1 μM, in a separate matrical plate, 28 μL of 100% DMSO and 2 μL of 10 mM compound was added to a well, mixed well, 2 μL of this solution was taken and added to 38 μL of 100% DMSO. 20 μL of this solution was added to the test matrical plate. Several control compounds were included in the test plates. For the control wells 15 μL 100% DMSO only was added to the appropriate wells of each plate. The compound plates were then serially diluted 2 fold using the MiniTrak. Once titrations were complete, the compound plate was immediately covered with a foil seal to prevent evaporation.
The assay and bead buffers were prepared fresh. Each titrated compound plate was assayed in duplicate. The following volumes were sufficient to run 12 Proxiplates (4 assay plates run in duplicate in each of Bclxl, hmMcl and counter assays)
Protein and Peptide Preparation; and Assay Performance • 1. The assay and bead buffers were used to prepare the acceptor and donor solutions. ALPHASCREEN™ beads are light sensitive and therefore prepared in a darkened room. 2.5 μL of beads were added per 1 mL of buffer. • 2. The volume of protein or peptide to add was calculated using the following formula:
V2=Volume of stock protein/Peptide to add to Acceptor/Donor solution • 3. The assay components were prepared as separate Acceptor and Donor Solutions. The Acceptor Solution contained Acceptor beads and target protein, while the Donor Solution contained Donor beads and biotinylated peptide.
• 4. After the solutions were prepared, they were left to incubate for 30 minutes at room temperature to allow the beads to bind to the protein and the peptide. • 5. 50 μL of Bcl-xL solution, 50 μL of hmMcl-1 solution and 50 μL of biotinylated-GST were added into separate deep wells on an assay plate. A control 50 μL Assay/Bead buffer was added separate well plates (no protein). • 6. 50 μL of Bim solution and 50 μL of Bak solution were added into separate deep well plates. • 7. Transfer 0.3 μL it of sample from the compound plate into each assay plate. • 8. Incubated for 30 mins at RT, then add 5 μL of the Donor solution. After addition of the Donor solution, tapped plates gently and sealed individually with adhesive film. • 9.
The percent inhibition was calculated using the following equation:
[formula] • x=RFU obtained after compound treatment • μ^−=RFU obtained for the negative controls (no protein controls) • μ^+=RFU obtained for the positive controls (DMSO vehicle controls)
In the case of `O=C(Nc1nc2ccccc2s1)c1cccc2c1CN(c1ccc(/C=C/Cc3ccccc3)c(C(=O)O)n1)CC2` [Compound 138, (E)-6-(8-(benzo[d]thiazol-2-ylcarbamoyl)-3,4-dihydroisoquinolin-2(1H)-yl)-3-(3-phenylprop-1-enyl)picolinic acid], the IC50 is reported as 3 nM. Work on `O=C(Nc1nc2ccccc2s1)c1cccc2c1CN(c1ncc(Cl)c(C(=O)O)n1)CC2` [Compound 123, 2-(8-(benzo[d]thiazol-2-ylcarbamoyl)-3,4-dihydroisoquinolin-2(1H)-yl)-5-chloropyrimidine-4-carboxylic acid] yielded an IC50 of 4000 nM. Work on `O=C(Nc1nc2ccccc2s1)c1cccc2c1CN(c1ccc(CCCOc3ccc(OCCN4CCCC4)cc3)c(C(=O)O)n1)CC2` [Example 106, 6-(8-(benzo[d]thiazol-2-ylcarbamoyl)-3,4-dihydroisoquinolin-2(1H)-yl)-3-(3-(4-(2-(pyrrolidin-1-yl)ethoxy)phenoxy)propyl)picolinic acid] yielded an IC50 of 1.1 nM. Molecule `O=C(Nc1nc2ccccc2s1)c1cccc2c1CN(c1ccc(CCCc3ccccc3)c(C(=O)O)n1)CC2` [Compound 137, 6-(8-(benzo[d]thiazol-2-ylcarbamoyl)-3,4-dihydroisoquinolin-2(1H)-yl)-3-(3-phenylpropyl)picolinic acid] has an IC50 of 30 nM.

The molecules below were run against T1, Bcl-xL (GST-Bcl-xL) (assay: TR-FRET binding assay, competition with F-Bak for the Bcl-xL binding site). Settings: values listed in the order of Table 1, read-out: TR-FRET assay results (Ki), Bcl-xL.
Protocol: The measurement of competition of compounds of the invention with F-Bak for a Bcl-2 family protein (Bcl-xL) binding site using a Time Resolved Fluorescence Resonance Energy Transfer (TR-FRET) binding assay:
Test compounds were serially diluted in DMSO starting at 50 μM (2× starting concentration; 10% DMSO) and 10 μt transferred into a 384-well plate.
The samples are then mixed on a shaker for 1 minute then incubated for an additional 2 hours at room temperature. For each assay plate, a probe/antibody and protein/antibody/probe mixture were included as a negative and a positive control, respectively. Fluorescence was measured on the Envision (Perkin Elmer) using a 340/35 nm excitation filter and 520/525 (F-Bak) and 495/510 nm (Tb-labeled anti-his antibody) emission filters. Dissociation constants (Ki) were determined using Wang's equation (see, Wang, Z. X. An exact mathematical expression for describing competitive binding of two different ligands to a protein molecule. FEBS Lett. 1995 360:111-114). The TR-FRET assay can be performed in the presence of varying concentrations of human serum (HS) or fetal bovine serum (FBS).
Molecule `Cc1c(CN2CCN(C)CC2)cnn1-c1ccc(OCCCc2sc(N3CCc4cccc(C(=O)Nc5nc6ccccc6s5)c4C3)nc2C(=O)O)cc1` [Example 85, 2-(8-(benzo[d]thiazol-2-ylcarbamoyl)-3,4-dihydroisoquinolin-2(1H)-yl)-5-(3-(4-(5-methyl-4-((4-methylpiperazin-1-yl)methyl)-1H-pyrazol-1-yl)phenoxy)propyl)thiazole-4-carboxylic acid] has a Ki of 0.05 nM. `N#Cc1c(-c2cccc(OCC#Cc3sc(N4CCc5cccc(C(=O)Nc6nc7ccccc7s6)c5C4)nc3C(=O)O)c2)n[nH]c1N` [Example 36, 5-(3-(3-(5-amino-4-cyano-1H-pyrazol-3-yl)phenoxy)prop-1-ynyl)-2-(8-(benzo[d]thiazol-2-ylcarbamoyl)-3,4-dihydroisoquinolin-2(1H)-yl)thiazole-4-carboxylic acid] gave a Ki of 5 nM. `CC(C)Nc1ncnc2c(-c3ccc(OCCCc4sc(N5CCc6cccc(C(=O)Nc7nc8ccccc8s7)c6C5)nc4C(=O)O)cc3)csc12` [Example 69, 2-[8-(Benzothiazol-2-ylcarbamoyl)-3,4-dihydro-1H-isoquinolin-2-yl]-5-{3-[4-(4-isopropylamino-thieno[3,2-d]pyrimidin-7-yl)-phenoxy]-propyl}-thiazole-4-carboxylic acid] showed a Ki of 0.5 nM. With `O=C(Nc1nc2ccccc2s1)c1cccc2c1CN(c1nc(C(=O)O)c(CCCN3CCOCC3)s1)CC2` [Example 19, 2-(8-(benzo[d]thiazol-2-ylcarbamoyl)-3,4-dihydroisoquinolin-2(1H)-yl)-5-(3-morpholinopropyl)thiazole-4-carboxylic acid] the Ki was 9 nM. For `O=C(Nc1nc2ccccc2s1)c1cccc2c1CN(c1nc(C(=O)O)c(CCCOc3ccc(-n4ccnc4)cc3)s1)CC2` [Example 66, 5-(3-(4-(1H-imidazol-1-yl)phenoxy)propyl)-2-(8-(benzo[d]thiazol-2-ylcarbamoyl)-3,4-dihydroisoquinolin-2(1H)-yl)thiazole-4-carboxylic acid], the Ki was 0.1 nM. Work on `N#Cc1cccnc1-c1ccc(OCCCc2sc(N3CCc4cccc(C(=O)Nc5nc6ccccc6s5)c4C3)nc2C(=O)O)cc1` [Example 56, 2-[8-(Benzothiazol-2-ylcarbamoyl)-3,4-dihydro-1H-isoquinolin-2-yl]-5-{3-[4-(3-cyano-pyridin-2-yl)-phenoxy]-propyl}-thiazole-4-carboxylic acid] yielded a Ki of 0.05 nM. Work on `O=C(Nc1nc2ccccc2s1)c1cccc2c1CN(c1nc(C(=O)O)c(C#Cc3ccc4cc(OCCCN5CCOCC5)ccc4c3)s1)CC2` [Example 110, 2-(8-(benzo[d]thiazol-2-ylcarbamoyl)-3,4-dihydroisoquinolin-2(1H)-yl)-5-((6-(3-morpholinopropoxy)naphthalen-2-yl)ethynyl)thiazole-4-carboxylic acid] yielded a Ki of 0.07 nM. `O=C(Nc1nc2ccccc2s1)c1cccc2c1CN(c1nc(C(=O)O)c(CCCOc3cc(F)c(NCCN4CCOCC4)cc3F)s1)CC2` [Example 115, 2-(8-(benzo[d]thiazol-2-ylcarbamoyl)-3,4-dihydroisoquinolin-2(1H)-yl)-5-(3-(2,5-difluoro-4-(2-morpholinoethylamino)phenoxy)propyl)thiazole-4-carboxylic acid] showed a Ki of 0.05 nM. Work on `CN1CCN(CCCN(CCCc2sc(N3CCc4cccc(C(=O)Nc5nc6ccccc6s5)c4C3)nc2C(=O)O)c2ncnc3c2cnn3-c2ccc(O)cc2)CC1` [Example 91, 2-(8-(benzo[d]thiazol-2-ylcarbamoyl)-3,4-dihydroisoquinolin-2(1H)-yl)-5-(3-((1-(4-hydroxyphenyl)-1H-pyrazolo[3,4-d]pyrimidin-4-yl)(3-(4-methylpiperazin-1-yl)propyl)amino)propyl)thiazole-4-carboxylic acid] yielded a Ki of 0.7 nM. For `O=C(Nc1nc2ccccc2s1)c1cccc2c1CN(c1nc(C(=O)O)c(CCCOc3ccc(-c4cnn(CCN5CCOCC5)c4)cc3)s1)CC2` [Example 83, 2-(8-(benzo[d]thiazol-2-ylcarbamoyl)-3,4-dihydroisoquinolin-2(1H)-yl)-5-(3-(4-(1-(2-morpholinoethyl)-1H-pyrazol-4-yl)phenoxy)propyl)thiazole-4-carboxylic acid], the Ki was 0.05 nM. Molecule `O=C(Nc1nc2ccccc2s1)c1cccc2c1CN(c1ccc(CCCO)c(C(=O)O)n1)CC2` [Example 99, 6-[8-(Benzothiazol-2-ylcarbamoyl)-3,4-dihydro-1H-isoquinolin-2-yl]-3-(3-hydroxy-propyl)-pyridine-2-carboxylic acid] has a Ki of 125 nM. Molecule `N#Cc1c(-c2cccc(OCc3ccc(-c4sc(N5CCc6cccc(C(=O)Nc7nc8ccccc8s7)c6C5)nc4C(=O)O)cc3)c2)n[nH]c1N` [Example 37, 5-(4-((3-(5-amino-4-cyano-1H-pyrazol-3-yl)phenoxy)methyl)phenyl)-2-(8-(benzo[d]thiazol-2-ylcarbamoyl)-3,4-dihydroisoquinolin-2(1H)-yl)thiazole-4-carboxylic acid] has a Ki of 4 nM. Molecule `N#Cc1c(-c2cccc(OCc3sc(N4CCc5cccc(C(=O)Nc6nc7ccccc7s6)c5C4)nc3C(=O)O)c2)n[nH]c1N` [Example 46, 5-[3-(5-Amino-4-cyano-1H-pyrazol-3-yl)-phenoxymethyl]-2-[8-(benzothiazol-2-ylcarbamoyl)-3,4-dihydro-1H-isoquinolin-2-yl]-thiazole-4-carboxylic acid] has a Ki of 1 nM. `CN(C)CCCNc1ncnc2c1cnn2-c1ccc(OCCCc2ccc(N3CCc4cccc(C(=O)Nc5nc6ccccc6s5)c4C3)nc2C(=O)O)cc1` [Example 92, 6-(8-(benzo[d]thiazol-2-ylcarbamoyl)-3,4-dihydroisoquinolin-2(1H)-yl)-3-(3-(4-(4-(3-(dimethylamino)propylamino)-1H-pyrazolo[3,4-d]pyrimidin-1-yl)phenoxy)propyl)picolinic acid] gave a Ki of 0.05 nM.
